According to patent US12697317B2 (priority 2019, dated 2026):

Tests used:
[1] = Steady state plasma PAA in hospitalized patients with cirrhosis and HE, Study 3; assay type: in vivo, human; conditions: for median concentration of PAA at steady state: Study 3, Child-Pugh C patients
Protocol: (§1) Pharmacokinetics Analysis
(§2) Both non-compartmental analysis and population PK analysis were conducted to identify factors attributing to the PK of PAA, ORN, and PAGN. Ethnicity factor on the PK of PAA was explored using the PK data from Caucasian, Chinese, and Japanese healthy subjects in Studies 1 and 4.

[2] = Population PK modeling of PAA, Studies 2, 3 and 5; assay type: in vivo, human
Protocol: as §2
Hepatic impairment also altered PAA plasma exposure. To identify the factors contributing to PAA plasma exposure, population PK modeling was conducted. A one-compartment model with Michaelis-Menten kinetics describing the formation of PAGN from PAA adequately quantified PAA plasma concentration profiles in healthy subjects and patients. Body weight was identified as a significant covariate for the PK of PAA in both healthy subjects and patients. Other factors such as ethnicity and hepatic/renal impairment on the PK of PAA are described below.

[3] = Safety/tolerability of LOPA in healthy subjects (SAD/MAD), Study 1; conditions: Study 1, healthy subjects, FIG. 2
Protocol: as §1
(§3) Adverse events (AEs) were assessed and coded using the Medical Dictionary for Regulatory Activities (MedDRA) preferred term and system organ class.
(§4) The evaluation of potential correlation between central nervous system (CNS) AEs and PAA exposure was conducted on data from Studies 1-3. The first reported drug-related CNS AE was included in the analysis. For each such CNS AE, two PAA concentrations were identified based on the time of onset of the AE and the time of PAA assessment: (1) the closest PAA concentration before the onset of the AE; and (2) the closest PAA concentrations after the onset of the […] All time points were calculated relative to the start of study drug infusion.

[4] = Safety/tolerability of LOPA in patients with stable cirrhosis, Study 2; conditions: Study 2, FIG. 3
Protocol: as §1, §3, §4

[5] = Safety of LOPA in hospitalized patients with cirrhosis, hyperammonemia and acute HE, Study 3; conditions: hospitalized patients with hyperammonemia and an acute episode of HE
Protocol: as §1, §3, §4

[6] = Plasma exposure by baseline creatinine clearance group (FIG. 1; Studies 2, 3 and 5)
Protocol: Renal dysfunction is expected to elevate PAGN plasma concentrations. AE data from subjects with severe renal impairment were summarized. […] CLcr of 35 mL/min was chosen as a cut-off value in order to have relatively sufficient sample size for the group with relatively worse renal function.

[7] = clinical; conditions: human, in vivo, iv
[8] = PK of PAA, ORN and PAGN in severe renal impairment vs normal renal function, Study 5
[9] = normal renal function, LOPA 15 g/24 hour IV
[10] = severely impaired renal function, LOPA 7 g/24 hours IV

O=C(O)Cc1ccccc1 [PAA, phenylacetic acid]
median concentration of PAA at steady state ([1]; 10 g/24 hr (n=23)): 118 µg/mL
median concentration of PAA at steady state ([1]; 15 g/24 hr (n=38)): 120 µg/mL
plasma PAA concentration at steady state, higher in Child-Pugh C than Child-Pugh B patients ([1]; Study 3, LOPA 15 g/24 h, during infusion period): approximately 35%
impact of renal dysfunction on the exposure of PAA ([2]; mild, moderate or severe renal dysfunction, population PK analysis): insignificant impact
PAA exposure at steady state, Child-Pugh C higher than Child-Pugh B ([2]; population PK model, same body weight): 36%
severity of CNS AEs vs PAA plasma concentrations [3]: appeared to be correlated
PAA concentrations vs CNS AE occurrence [4]: No correlation
PAA exposure related neurotoxicity [5]: No PAA exposure related neurotoxicity
PAA plasma concentrations, CLcr ≤35 mL/min group vs >35 mL/min group [6]: no difference
PAA PK: increase in Cmax and AUC with dose (IV LOPA from 10 g/4 h or 20 g/24 h up, healthy subjects and subjects with stable cirrhosis): greater than dose-proportional increase
Recovered PAA as unchanged compound in urine (after IV LOPA): < 1 % of the administered dose of PAA
half-life ([7]; 3 g/4 h): 0.65 h
half-life ([7]; 30 g/4 h): 5.99 h
half-life ([7]; 30 g/24 h): 1.25 h
half-life ([7]; 60 g/24 h): 4.09 h
mean dose normalized PAA AUCt [8, 9]: 54.9 µg·h/mL/g
mean dose normalized PAA Cmax [8, 9]: 2.61 µg/mL/g
mean dose normalized PAA AUCt [8, 10]: 45.4 µg·h/mL/g
mean dose normalized PAA Cmax [8, 10]: 1.58 µg/mL/g
